Experimental data from patent USRE40086E1, “Method for treating bacterial infection with novel 7-substituted-9-substituted amino 6-demethyl-6-deoxytetracyclines” (Wyeth Holdings Corporation, priority 1991, dated 2008).

Experiments:
[1] = test system: S. aureus UBMS 88-5 (tetM); test: MIC, agar dilution; type: cell-based; details: S. aureus UBMS 88-5 TetM; Table IA; unit assumed
[2] = test system: S. aureus UBMS 88-4 (Sensitive); test: MIC, agar dilution; type: cell-based; details: S. aureus UBMS 88-4; Table IA; unit assumed
[3] = test system: S. aureus UBMS 90-1 (tetM); test: MIC, agar dilution; type: cell-based; details: S. aureus UBMS 90-1 TetM; Table IA; unit assumed
[4] = test system: S. aureus UBMS 90-2 (tetM); test: MIC, agar dilution; type: cell-based; details: S. aureus UBMS 90-2 TetM; Table IA; unit assumed
[5] = test system: S. aureus UBMS 90-3 (Sensitive); test: MIC, agar dilution; type: cell-based; details: S. aureus UBMS 90-3; Table IA; unit assumed
[6] = test system: S. aureus UBMS 88-7 (tetK); test: MIC, agar dilution; type: cell-based; details: S. aureus UBMS 88-7 TetK; Table IA; unit assumed
[7] = test system: S. aureus IVES 2943 (meth. resistant); test: MIC, agar dilution; type: cell-based; details: S. aureus IVES 2943; Table IA; unit assumed
[8] = test system: S. aureus IVES 1983 (meth. resistant); test: MIC, agar dilution; type: cell-based; details: S. aureus IVES 1983; Table IA; unit assumed
[9] = test system: S. aureus ATCC 29213 (Sensitive); test: MIC, agar dilution; type: cell-based; details: S. aureus ATCC 29213; Table IA; unit assumed
[10] = test system: S. aureus Smith (Sensitive); test: MIC, agar dilution; type: cell-based; details: S. aureus SMITH (MP); Table IA; unit assumed
[11] = test system: S. haemolyticus AVAH 88-3; test: MIC, agar dilution; type: cell-based; details: S. hemolyticus AVHAH 88-3; Table IA; unit assumed
E. faecalis 12201 = test: MIC, agar dilution; type: cell-based; details: Enterococcus 12201; Table IA; unit assumed
E. faecalis ATCC 29212 = test: MIC, agar dilution; type: cell-based; details: E. faecalis ATCC 29212; Table IA; unit assumed
E. coli UBMS 88-1 (tetB) = test: MIC, agar dilution; type: cell-based; details: E. coli UBMS 88-1 TetB; Table IA; unit assumed
E. coli UBMS 89-1 (tetM) = test: MIC, agar dilution; type: cell-based; details: E. coli UBMS 89-1 TetM; Table IA; unit assumed
[12] = test system: E. coli UBMS 89-2 (Sensitive); test: MIC, agar dilution; type: cell-based; details: E. coli UBMS 89-2 Tet Sens.; Table IA; unit assumed
E. coli ATCC 25922 = test: MIC, agar dilution; type: cell-based; details: E. coli ATCC 25922; Table IA; unit assumed
E. coli J3272 Tet sens. = test: MIC, agar dilution (Table IA); type: cell-based; details: unit assumed
E. coli MC4100 TetB = test: MIC, agar dilution (Table IA); type: cell-based; details: unit assumed
E. coli PRP1 TetA = test: MIC, agar dilution (Table IA); type: cell-based; details: unit assumed
E. coli J3272 TetC = test: MIC, agar dilution (Table IA); type: cell-based; details: unit assumed
E. coli J2175 = test: MIC, agar dilution (Table IA); type: cell-based; details: unit assumed
E. coli BAJ9003 = test: MIC, agar dilution (Table IA); type: cell-based; details: unit assumed
E. coli UBMS 90-5 = test: MIC, agar dilution (Table IA); type: cell-based; details: unit assumed
E. coli #311 (MP) = test: MIC, agar dilution (Table IA); type: cell-based; details: unit assumed
E. coli J3272 TetD = test: MIC, agar dilution (Table IA); type: cell-based; details: unit assumed
S. mariescens FDOR 8733 = test: MIC, agar dilution (Table IA); type: cell-based; details: unit assumed
[13] = test system: X. maltophilia NEMC 87210; test: MIC, agar dilution (Table IA); type: cell-based; details: unit assumed
[14] = test system: Ps. acruginosa ATCC 27853; test: MIC, agar dilution (Table IA); type: cell-based; details: unit assumed
S. aureus NEMC 8769/89-4 = test: MIC, agar dilution (Table IA); type: cell-based; details: unit assumed
S. aureus ROSE (MP) = test: MIC, agar dilution (Table IA); type: cell-based; details: unit assumed
[15] = test system: Wild Type S30 extract, E. coli strain MRE600 (tetracycline sensitive); test: E. coli in vitro transcription and protein translation, 35S-methionine incorporation (Table VIII)
[16] = test system: TetM S30 extract, derivative of E. coli MRE600 containing the tetM determinant; test: as above
E. coli UBMS 90-4 (tetM) = test: MIC, agar dilution; type: cell-based; details: E. coli UBMS 90-4 TetM; Table IA; unit assumed

SMILES	Antibacterial activity (MIC) [1] [mg/L]	Antibacterial activity (MIC) [2] [mg/L]	Antibacterial activity (MIC) [3] [mg/L]	Antibacterial activity (MIC) [4] [mg/L]	Antibacterial activity (MIC) [5] [mg/L]	Antibacterial activity (MIC) [6] [mg/L]	Antibacterial activity (MIC) [7] [mg/L]	Antibacterial activity (MIC) [8] [mg/L]	Antibacterial activity (MIC) [9] [mg/L]	Antibacterial activity (MIC) [10] [mg/L]	Antibacterial activity (MIC) [11] [mg/L]	Antibacterial activity (MIC) (E. faecalis 12201) [mg/L]	Antibacterial activity (MIC) (E. faecalis ATCC 29212) [mg/L]	Antibacterial activity (MIC) (E. coli UBMS 88-1 (tetB)) [mg/L]	Antibacterial activity (MIC) (E. coli UBMS 89-1 (tetM)) [mg/L]	Antibacterial activity (MIC) [12] [mg/L]	Antibacterial activity (MIC) (E. coli ATCC 25922) [mg/L]	Antibacterial activity (MIC) (E. coli J3272 Tet sens.) [mg/L]	Antibacterial activity (MIC) (E. coli MC4100 TetB) [mg/L]	Antibacterial activity (MIC) (E. coli PRP1 TetA) [mg/L]	further results
CNCC(=O)Nc1cc(N(C)C)c2c(c1O)C(=O)C1=C(O)[C@]3(O)C(=O)C(C(N)=O)=C(O)[C@@H](N(C)C)C3CC1C2.Cl.Cl (stereo partly drawn) [MM, [4S-(4alpha,12aalpha)]-4,7-Bis(dimethylamino)-1,4,4a,5,5a,6,11,12a-octahydro-3,10,12,12a-tetrahydroxy-9-[[(methylamino)acetyl]amino]-1,11-dioxo-2-naphthacenecarboxamide dihydrochloride]	0.5	0.5	1	0.5	0.5	16	32	16	1	0.5	1	0.25	0.25	1	1	1	1	1	1	16	Antibacterial activity (MIC) (E. coli J3272 TetC): 8 mg/L; Antibacterial activity (MIC) (E. coli J2175): 1 mg/L; Antibacterial activity (MIC) (E. coli BAJ9003): 0.25 mg/L; Antibacterial activity (MIC) (E. coli UBMS 90-5): 1 mg/L; Antibacterial activity (MIC) (E. coli #311 (MP)): 1 mg/L; Antibacterial activity (MIC) (E. coli J3272 TetD): 0.05 mg/L; Antibacterial activity (MIC) (S. mariescens FDOR 8733): 16 mg/L; Antibacterial activity (MIC) [13]: 8 mg/L; Antibacterial activity (MIC) [14]: 16 mg/L; Antibacterial activity (MIC) (S. aureus NEMC 8769/89-4): 0.5 mg/L; Antibacterial activity (MIC) (S. aureus ROSE (MP)): 32 mg/L; % INHIBITION Wild Type S30 ([15]; 0.06 mg/ml): 95%; % INHIBITION Wild Type S30 ([15]; 0.2 mg/ml): 98%; % INHIBITION Wild Type S30 ([15]; 1.0 mg/ml): 99%; % INHIBITION TetM S30 ([16]; 0.06 mg/ml): 92%; % INHIBITION TetM S30 ([16]; 0.2 mg/ml): 97%; % INHIBITION TetM S30 ([16]; 1.0 mg/ml): 99%
CCNCC(=O)Nc1cc(N(C)C)c2c(c1O)C(=O)C1=C(O)[C@]3(O)C(=O)C(C(N)=O)=C(O)[C@@H](N(C)C)C3CC1C2.Cl.Cl (stereo partly shown) [OO]	1	1	1	0.5	0.5	8	8	8	1	0.5	1	0.25	0.25	1	1	1	1	1	1	2	Antibacterial activity (MIC) (E. coli UBMS 90-4 (tetM)): 0.5 mg/L; Antibacterial activity (MIC) (E. coli J3272 TetC): 2 mg/L; Antibacterial activity (MIC) (E. coli J2175): 1 mg/L; Antibacterial activity (MIC) (E. coli BAJ9003): 0.12 mg/L; Antibacterial activity (MIC) (E. coli UBMS 90-5): 1 mg/L; Antibacterial activity (MIC) (E. coli #311 (MP)): 1 mg/L; Antibacterial activity (MIC) (E. coli J3272 TetD): 0.5 mg/L; Antibacterial activity (MIC) (S. mariescens FDOR 8733): 8 mg/L; Antibacterial activity (MIC) [13]: 2 mg/L; Antibacterial activity (MIC) [14]: 16 mg/L; Antibacterial activity (MIC) (S. aureus NEMC 8769/89-4): 0.5 mg/L; Antibacterial activity (MIC) (S. aureus ROSE (MP)): 8 mg/L; % INHIBITION Wild Type S30 ([15]; 0.06 mg/ml): 94%; % INHIBITION Wild Type S30 ([15]; 0.2 mg/ml): 97%; % INHIBITION Wild Type S30 ([15]; 1.0 mg/ml): 99%; % INHIBITION TetM S30 ([16]; 0.06 mg/ml): 87%; % INHIBITION TetM S30 ([16]; 0.2 mg/ml): 95%; % INHIBITION TetM S30 ([16]; 1.0 mg/ml): 99%
CN(C)c1cc(NC(=O)CNC2CC2)c(O)c2c1CC1CC3C(N(C)C)C(O)=C(C(N)=O)C(=O)C3(O)C(O)=C1C2=O.Cl.Cl (stereo not drawn) [QQ, [4S-(4alpha,12aalpha))-9[[(Cyclopropylamino)acetyl)amino]-4,7-Bis(dimethylamino)-1,4,4a,5,5a,6,11,12a-octahydro-3,10,12,12a-tetrahydroxy-1,11-dioxo-2-naphthacenecarboxamide dihydrochloride]	0.5	0.5	0.5	0.5	0.5	4	16	8	0.5	0.25	2	0.5	0.25	4	1	2	2	2	2	32	Antibacterial activity (MIC) (E. coli UBMS 90-4 (tetM)): 2 mg/L; Antibacterial activity (MIC) (E. coli J3272 TetC): 8 mg/L; Antibacterial activity (MIC) (E. coli J2175): 2 mg/L; Antibacterial activity (MIC) (E. coli BAJ9003): 0.25 mg/L; Antibacterial activity (MIC) (E. coli UBMS 90-5): 2 mg/L; Antibacterial activity (MIC) (E. coli #311 (MP)): 2 mg/L; Antibacterial activity (MIC) (E. coli J3272 TetD): 2 mg/L; Antibacterial activity (MIC) (S. mariescens FDOR 8733): > 32 mg/L; Antibacterial activity (MIC) [13]: 2 mg/L; Antibacterial activity (MIC) [14]: > 32 mg/L; Antibacterial activity (MIC) (S. aureus NEMC 8769/89-4): 0.12 mg/L; Antibacterial activity (MIC) (S. aureus ROSE (MP)): 16 mg/L; % INHIBITION Wild Type S30 ([15]; 0.06 mg/ml): 92%; % INHIBITION Wild Type S30 ([15]; 0.2 mg/ml): 97%; % INHIBITION Wild Type S30 ([15]; 1.0 mg/ml): 99%; % INHIBITION TetM S30 ([16]; 0.06 mg/ml): 85%; % INHIBITION TetM S30 ([16]; 0.2 mg/ml): 95%; % INHIBITION TetM S30 ([16]; 1.0 mg/ml): 99%
CN(C)c1cc(NC(=O)CN2CCCCC2)c(O)c2c1CC1CC3C(N(C)C)C(O)=C(C(N)=O)C(=O)C3(O)C(O)=C1C2=O.Cl.Cl (stereo not drawn) [UU, [7S-(7alpha,10aalpha)]-N-[9-(Aminocarbonyl)-4,7-bis(dimethylamino)-5,5a,6,6a,7,10,10a,12-octahydro-1,8,10a,11-tetrahydroxy-10,12-dioxo-2-naphthacenyl)-1-piperidineacetamide dihydrochloride]	0.25	0.25	0.25	0.12	0.12	0.25	0.25	0.5	0.12	0.12	0.12	0.12	0.06	0.5	0.12	0.5	0.25	0.5	0.5	1	Antibacterial activity (MIC) (E. coli UBMS 90-4 (tetM)): 0.5 mg/L; Antibacterial activity (MIC) (E. coli J3272 TetC): 0.5 mg/L; Antibacterial activity (MIC) (E. coli J2175): 0.5 mg/L; Antibacterial activity (MIC) (E. coli BAJ9003): 0.06 mg/L; Antibacterial activity (MIC) (E. coli UBMS 90-5): 0.5 mg/L; Antibacterial activity (MIC) (E. coli #311 (MP)): 0.25 mg/L; Antibacterial activity (MIC) (E. coli J3272 TetD): 0.25 mg/L; Antibacterial activity (MIC) (S. mariescens FDOR 8733): 4 mg/L; Antibacterial activity (MIC) [13]: 0.12 mg/L; Antibacterial activity (MIC) [14]: 32 mg/L; Antibacterial activity (MIC) (S. aureus NEMC 8769/89-4): 0.06 mg/L; Antibacterial activity (MIC) (S. aureus ROSE (MP)): 0.5 mg/L
